Patent US7465715B2, “Method for treatment of multiple sclerosis” (Can-Fite Biopharma, Ltd., priority 2003, dated 2008)

What was measured:
EAE = test: Experimental autoimmune encephalomyelitis (EAE) induced with MBP in Lewis rats, clinical score; assay type: in vivo, female Lewis rats
multiple sclerosis = settings: patients having MS; cited from earlier work
A1 receptor = target: T1, A1 receptor (Rattus norvegicus, UniProt P25099); settings: cited from earlier work
T1 sequence (P25099 1-326): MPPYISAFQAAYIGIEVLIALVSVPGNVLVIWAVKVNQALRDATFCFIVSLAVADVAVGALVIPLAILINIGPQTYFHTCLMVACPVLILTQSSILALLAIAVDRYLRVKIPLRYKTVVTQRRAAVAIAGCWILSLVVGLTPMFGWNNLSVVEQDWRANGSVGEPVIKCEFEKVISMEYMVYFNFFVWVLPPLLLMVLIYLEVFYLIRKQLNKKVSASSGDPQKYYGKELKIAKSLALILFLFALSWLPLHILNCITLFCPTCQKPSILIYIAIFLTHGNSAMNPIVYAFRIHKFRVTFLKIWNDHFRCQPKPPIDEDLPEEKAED

| Compound | difference in the maximal clinical score between treated and control groups (EAE; 10 μg/kg PO BID from day 7, P<0.01, Student's t test) | severity of the disease in the treated group (EAE; 10 μg/kg PO BID from day 7 after disease induction) | clinical score in comparison to the control group (EAE; 10 μg/kg PO BID from day 7 after disease induction, score 0-5) | effect on the disease condition of MS patients (multiple sclerosis) | functional character at A1 receptors (A1 receptor) |
| --- | --- | --- | --- | --- | --- |
| CNC(=O)[C@H]1O[C@@H](n2cnc3c(NCc4cccc(I)c4)ncnc32)[C@H](O)[C@@H]1O [CF101, N^6-(3-iodobenzyl)-adenosine-5′-N-methyluronamide] | significant | significantly reduced | remarkably low clinical score |  |  |
| Nc1nc(Cl)nc2c1ncn2[C@H]1C[C@H](O)[C@@H](CO)O1 [CdA, 2-chloro-2′-deoxyadenosine] |  |  |  | markedly ameliorate the disease condition | putative partial agonist |
